Data on eleven molecules can be found in US6982348B2, “Aminoethanol derivatives” (Takeda Pharmaceutical Company Limited, priority 2001, dated 2006).

Take `CC(C)(C)c1ccc(C[C@@H](NC(=O)c2ccc(F)c3ccccc23)[C@@H](O)c2ccc(F)cc2)cc1` (racemic) [Example 357, N-[(1RS,2SR)-1-(4-tert-butylbenzyl)-2-(4-fluorophenyl)-2-hydroxyethyl]-4-fluoro-1-naphthamide]: the melting point was 149 to 150 °C.
`CC(F)(F)c1cccc(C[C@@H](NC(=O)c2ccc(F)c3ccccc23)[C@@H](O)c2ccc(F)cc2)c1` (racemic) [Example 359, N-[(1RS,2SR)-1-[3-(1,1-difluoroethyl)benzyl]-2-(4-fluorophenyl)-2-hydroxyethyl]-4-fluoro-1-naphthamide] had a melting point of 182 to 183 °C.
Then `CC(F)(F)c1cccc(C[C@@H](NC(=O)c2cccc3c2C=CCCC3)[C@@H](O)c2ccc(F)cc2)c1` (racemic) [Example 360, N-[(1RS,2SR)-1-[3-(1,1-difluoroethyl)benzyl]-2-(4-fluorophenyl)-2-hydroxyethyl]-6,7-dihydro-5H-benzo[a]cycloheptene-1-carboxamide], with 170 to 171 °C; and `CC(C)(C)OC(=O)N[C@H](Cc1cccc(OC(F)(F)C(F)F)c1)[C@@H](O)c1csc(-c2ccccc2)n1` (racemic) [Example 361, tert-butyl (1RS,2RS)-2-hydroxy-2-(2-phenyl-1,3-thiazol-4-yl)-1-[3-(1,1,2,2-tetrafluoroethoxy)benzyl]ethylcarbamate], with 127 to 128 °C; and `O=C(N[C@H](Cc1cccc(OC(F)(F)C(F)F)c1)[C@@H](O)c1csc(-c2ccccc2)n1)c1ccc(F)c2ccccc12` (racemic) [Example 362, 4-fluoro-N-{(1RS,2RS)-2-hydroxy-2-(2-phenyl-1,3-thiazol-4-yl)-1-[3-(1,1,2,2-tetrafluoroethoxy)benzyl]ethyl}-1-naphthamide], with 148 to 150 °C.
Then `CC(C)(C)c1ccc(C[C@@H](NC(=O)c2cccc3c(F)cccc23)[C@@H](O)c2ccc(F)cc2)cc1` (racemic) [Example 364, N-[(1RS,2SR)-1-(4-tert-butylbenzyl)-2-(4-fluorophenyl)-2-hydroxyethyl]-5-fluoro-1-naphthamide], with 148 to 149 °C.
Then `CC(C)(C)COc1cccc(C[C@@H](NC(=O)c2ccc(F)c3ccccc23)[C@@H](O)c2cccc(Cl)c2)c1` (racemic) [Example 366, N-[(1RS,2SR)-1-[3-(neopentyloxy)benzyl]-2-(3-chlorophenyl)-2-hydroxyethyl]-4-fluoro-1-naphthamide], with 165 to 166 °C.
The molecule `CC(C)(C)COc1cccc(C[C@@H](NC(=O)c2cccc3c(Cl)cccc23)[C@@H](O)c2cccc(Cl)c2)c1` (racemic) [Example 367, N-[(1RS,2SR)-1-[3-(neopentyloxy)benzyl]-2-(3-chlorophenyl)-2-hydroxyethyl]-5-chloro-1-naphthamide] returned a melting point of 142 to 143 °C.
Then `CC(C)(C)COc1cccc(C[C@@H](NC(=O)c2cccc3c2C=CCCC3)[C@@H](O)c2cccc(Cl)c2)c1` (racemic) [Example 368, N-[(1RS,2SR)-1-[3-(neopentyloxy)benzyl]-2-(3-chlorophenyl)-2-hydroxyethyl]-6,7-dihydro-5H-benzo[a]cycloheptene-1-carboxamide], with 128 to 129 °C.
Then `CC(C)(C)c1cccc(C[C@@H](NC(=O)c2ccc(F)c3ccccc23)[C@@H](O)c2cccc(Cl)c2)c1` (racemic) [Example 369, N-[(1RS,2SR)-1-[3-(tert-butyl)benzyl]-2-(3-chlorophenyl)-2-hydroxyethyl]-4-fluoro-1-naphthamide], with 76 to 78 °C.
Then `CC(C)(C)c1cccc(C[C@@H](NC(=O)c2cccc3c(Cl)cccc23)[C@@H](O)c2cccc(Cl)c2)c1` (racemic) [Example 371, N-[(1RS,2SR)-1-[3-(tert-butyl)benzyl]-2-(3-chlorophenyl)-2-hydroxyethyl]-5-chloro-1-naphthamide], with 91 to 93 °C.

In general, melting point refers to the temperature of the solid-liquid transition.
